Consider 2 molecules from publication PMC6471485, “Selective Inhibitors of a Human Prolyl Hydroxylase (OGFOD1) Involved in Ribosomal Decoding” (Chemistry (Weinheim an Der Bergstrasse, Germany), 2019).

The target of data set [1] is T1, Ofd1 (Schizosaccharomyces pombe, UniProt Q11120).
T1 sequence (Q11120 1-515): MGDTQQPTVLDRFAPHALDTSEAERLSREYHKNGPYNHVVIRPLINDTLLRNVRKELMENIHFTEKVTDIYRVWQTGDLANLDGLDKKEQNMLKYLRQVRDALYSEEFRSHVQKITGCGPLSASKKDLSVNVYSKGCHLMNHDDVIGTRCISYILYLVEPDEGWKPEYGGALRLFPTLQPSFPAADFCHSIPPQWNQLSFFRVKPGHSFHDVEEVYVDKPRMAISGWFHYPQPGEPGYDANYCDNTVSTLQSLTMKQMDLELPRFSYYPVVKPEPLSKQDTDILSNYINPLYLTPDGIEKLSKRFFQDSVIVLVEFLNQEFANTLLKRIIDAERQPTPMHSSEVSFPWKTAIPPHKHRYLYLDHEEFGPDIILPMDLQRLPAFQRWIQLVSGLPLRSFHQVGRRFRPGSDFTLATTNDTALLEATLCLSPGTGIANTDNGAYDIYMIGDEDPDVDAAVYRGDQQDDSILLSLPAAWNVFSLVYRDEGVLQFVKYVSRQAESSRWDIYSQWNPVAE
Nature of the data set: Ofd1 inhibition assay (Figure S12). The data set is classed as biochemical, yeast. The settings on record: Ofd1 1 µM (Figure S12).

Data set [2] is described as follows: S9 liver microsome stability assay (Cyprotex). Type of data set: in vitro ADME. The settings on record: for microsomal CLint: S9 liver microsome assay, read-out: predicted intrinsic clearance; for clearance classification: low clearance: < 8.6 µL/min/mg protein. The protocol:
supplemented with 80 µM Zn(II), 70 µM of inhibitor, all in 50 mM Tris-d11, pH 7.5, 10 % D2O, […]
Cell Culture and Immunoblotting
HeLa cells were cultured in DMEM media supplemented with 10 % fetal bovine serum, 4 mM L-glutamine, 100 U/mL penicillin, and 100 µg/mL streptomycin. Cells were treated with the indicated compounds, prepared in 1% DMSO, for 5 h. Following a PBS buffer rinse, cells were lysed in urea/SDS buffer supplemented with 1 mM dithiothreitol. Cell extracts were analyzed by SDS-PAGE, electroblotted onto PVDF membranes (Millipore) and probed with anti-HIF-1α antibody (clone 54, BD Transduction Laboratories) at 1:1000 dilution for 1 h at room temperature. The HRP-conjugated secondary antibody was then applied at room temperature for 1 h. Target proteins were detected with SuperSignal Chemiluminescent […]
ADMET in vitro Predictors
S9 liver microsome stability assays and MDCK-MDR1 efflux assays were carried out for CCT3 and CCT4 by Cyprotex (UK). Additional details are provided later in the Supporting […]
The solubility and metabolic stability of CCT3 and CCT4 was preliminarily evaluated using a S9 liver microsome assay (Cyprotex, UK). According to the assay, CCT3 and CCT4 had […]
respectively, and are thus classified as having low clearance (< 8.6 µL/min/mg protein).
The cell permeability of CCT3 and CCT4 were evaluated using an MDR1-MDCK in vitro […]
able to penetrate the blood-brain barrier. The permeability coefficients were determined to be

For the molecule `Cn1c(O)c(C(=O)CCc2cccs2)c(=O)n(C)c1=O` [compound 42], in data set [1], the “inhibition of Ofd1, in words” value is on record as “potently inhibit”. The microsomal CLint in data set [2] was 7.72 µL/min/mg. The clearance classification entry in data set [2] (listed as CCT4) is recorded as “only low levels of clearance”.

Consider `Cn1c(O)c(C(=O)CCc2ccccc2)c(=O)n(C)c1=O` [compound 26], for which the “inhibition of Ofd1, in words” value in data set [1] is recorded as “potently inhibit”. In addition, the microsomal CLint in data set [2] was 4.76 µL/min/mg. For the same molecule, in data set [2] (listed as CCT3), the clearance classification result is “only low levels of clearance”.
